# Data as given in patent publication US20250236840A1, “SELECTIVE EXPANSION OF DIFFERENT SUBPOPULATIONS OF T CELLS BY THE ALTERATION OF CELL SURFACING SIGNALS AND SIGNAL RATIO” (LIFE TECHNOLOGIES AS, priority 2015, published 2025).
# Tested on: T cells
# Test: Effect of AHR agonist on Th17 polarization (intracellular IL-17 after PMA/Ionomycin)
# Type: cell-based, human
# Description: FIG. 8. T cells were activated with CD3/CD5 (upper) or CD3/ICOS (lower) figure and expanded in presence of standard Th17-polarizing cytokines/antibodies (cytokines package), or with 100 nM FICZ and IL-1B and IL-6. At day 13 cultures were stimulated with PMA/Ionomycin for 4-5 hours before assessment of IL-17A and IL-17F expression. Cytograms show intracellular expression of the cytokines.
# Protocol permutation: T cells were activated with DYNABEADS® CD3/CD5, DYNABEADS® CD3/ICOS, or DYNABEADS® CD3/CD28 with equal signal strength and stoichiometry. Th17 polarization was facilitated by addition of i) cytokines (TGF-β, IL-23, IL-6, IL-1B) and αIL-4/α-IFN-γ neutralizing antibodies or ii) the AHR agonist FICZ plus IL-6, IL-1βa. Th17 polarization was assessed by intracellular staining of IL-17 and IFN-γ following PMA/Ionomycin activation of polarized T cells (FIG. 8).
structure (smiles),measurement,setting,value
"O=Cc1c2c(cc3c1=Nc1ccccc1-3)=Nc1ccccc1-2 [FICZ, 6-formylindolo [3,2-b]carbazole]",Activity on T cells costimulated through CD5,"100 nM FICZ plus IL-1β and IL-6, CD3/CD5 beads, day 13",promising activity
same,Activity on T cells costimulated through ICOS,"100 nM FICZ plus IL-1β and IL-6, CD3/ICOS beads, day 13",not
same,IL-17 producing cells compared to standard polarizing conditions,"FICZ, IL-1β and IL-6 protocol",fewer
